“Also recorded” adds a separate entry of the source.

The target in series [1] is HDAC1 (Homo sapiens, UniProt Q13547). In words: Inhibition of recombinant HDAC1. It counts as biochemical. The conditions noted are these: read-out: IC50 (nM) HCAC1.
Series [2] deals with acetylated alpha-tubulin and acetylated histone H3 in LNCaP (human prostate cancer cells). In words: Accumulation of acetylated proteins in LNCaP cells (western blot). It counts as cell-based. Conditions: LNCaP cells, FIG. 2. The procedure: FIG. 2. Blot showing accumulation of acetylated alpha-tubulin and acetylated histone H3 in LNCaP (human prostate cancer cells) cultured with compounds 8 or 11. GADPH used as loading control.
FIG. 5. Western blots of acetylated alpha-tubulin (Acet-Tub) and acetylated histone H3 (Acet-H3) in HFS (normal) and LNCaP (transformed) cells treated with compound 8 at 8, 16, 32, and 64 μM for 24 h. Western blots of GAPDH and total histone H3 (Total-H3) are loading controls.
(§1) Recombinant HDAC1 and HDAC6 are used to evaluate the selective inhibitory potency of each compound. Cell based assays: Normal cells (Human Foreskin Fibroblast cells), LNCaP (human prostate cancer cells), MCF-7 (human breast cancer cells, A549 (human adenocarcinoma of lung cells) and ARP-1 (human multiple myeloma cells) are used in these assays. Cells were cultured for up to 72 hr without and with the potential HDAC6-selective inhibitor. SAHA was used as a control. Cell number and cell viability were determined by enumeration. Proteins were extracted from cells and assayed for accumulation of acetylated tubulin and acetylated histones. All methods are described in Namdar et al., PNAS, 2010, 107:20003-8. In vivo animal studies: Potential HDAC6 inhibitor compounds are further assayed by administration to mice for up to 5 days with daily injections. Animals are sacrificed and tissues are analyzed for accumulation of acetylated tubulin and acetylated histones.

The target of series [3] is T1, HDAC6 (Homo sapiens, UniProt Q9UBN7).
T1 sequence (Q9UBN7 1-1215): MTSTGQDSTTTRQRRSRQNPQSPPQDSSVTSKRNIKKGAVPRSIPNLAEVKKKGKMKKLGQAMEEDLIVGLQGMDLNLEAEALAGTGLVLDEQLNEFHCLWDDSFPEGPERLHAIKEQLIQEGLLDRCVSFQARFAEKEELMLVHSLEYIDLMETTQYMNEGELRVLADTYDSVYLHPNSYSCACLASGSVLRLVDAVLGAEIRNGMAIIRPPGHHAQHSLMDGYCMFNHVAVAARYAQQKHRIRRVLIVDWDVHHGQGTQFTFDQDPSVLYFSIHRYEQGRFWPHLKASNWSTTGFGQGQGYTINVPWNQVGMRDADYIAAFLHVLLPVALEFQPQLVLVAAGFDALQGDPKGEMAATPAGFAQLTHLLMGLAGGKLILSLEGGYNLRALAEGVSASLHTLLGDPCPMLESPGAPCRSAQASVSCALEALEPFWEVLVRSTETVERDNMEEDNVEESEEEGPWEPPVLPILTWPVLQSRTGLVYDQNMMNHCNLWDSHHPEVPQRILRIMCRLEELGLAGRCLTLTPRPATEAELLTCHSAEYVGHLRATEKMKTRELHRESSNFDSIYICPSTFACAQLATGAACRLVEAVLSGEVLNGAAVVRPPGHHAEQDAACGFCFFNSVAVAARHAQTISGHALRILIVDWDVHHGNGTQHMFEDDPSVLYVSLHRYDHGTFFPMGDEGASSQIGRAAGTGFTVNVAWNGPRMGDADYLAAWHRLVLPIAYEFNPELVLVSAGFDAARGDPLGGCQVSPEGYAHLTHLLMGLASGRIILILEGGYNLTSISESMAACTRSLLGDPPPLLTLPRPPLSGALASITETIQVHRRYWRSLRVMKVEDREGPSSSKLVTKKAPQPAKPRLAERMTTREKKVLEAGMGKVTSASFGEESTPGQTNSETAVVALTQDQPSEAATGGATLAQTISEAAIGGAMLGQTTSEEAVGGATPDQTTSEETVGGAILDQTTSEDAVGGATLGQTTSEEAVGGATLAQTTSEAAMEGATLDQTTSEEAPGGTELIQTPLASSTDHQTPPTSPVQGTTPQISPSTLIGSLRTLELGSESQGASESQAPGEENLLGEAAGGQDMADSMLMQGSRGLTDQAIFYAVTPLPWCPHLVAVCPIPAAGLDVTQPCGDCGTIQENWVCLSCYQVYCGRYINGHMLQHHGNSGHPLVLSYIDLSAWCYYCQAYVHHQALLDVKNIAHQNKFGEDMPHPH
In words: Inhibition of recombinant HDAC6. The conditions noted are these: for Ratio: HDAC1/HDAC6: ratio of IC50 HDAC1 to IC50 HDAC6.

The subject of series [4] is acetylated alpha-tubulin and acetylated histone H3 in LNCaP (human prostate cancer cells). Conditions: SAHA; literature cited, cells not given; cited from earlier work.
Series [5] relates to LNCaP (human prostate adenocarcinoma) cells. In words: Cell growth and viability of LNCaP cells. It counts as cell-based. The conditions noted are these: SAHA control. The procedure: FIG. 3. Cell growth of HFS (normal) and LNCaP (transformed) cells treated with compound 8 over 72 h.
FIG. 4. Cell viability of HFS (normal) and LNCaP (transformed) cells treated with compound 8 over 72 h.
as §1
The effect of compound 8 on the cell growth and viability of normal (HFS, human foreskin fibroblast) and transformed (LNCaP, human prostate adenocarcinoma) cells cultured with 8, 16, 32 or 64 μM HPB for up to 72 h was evaluated.

For series [6], the system named is androgen-dependent CWR22 human prostate cancer xenograft. In words: CWR22 human prostate cancer xenograft in nude mice. It counts as in vivo. Conditions: 21 days; daily 300 mg/kg compound 8 or weekly 3 mg/kg etoposide alone.
The test system of series [7] is acetylated alpha-tubulin and histones in CWR22 tumors and spleen. In words: Acetylated lysine patterns in CWR22 tumors and spleen. It counts as in vivo, nude mice. The source says:
Tumors and spleen are removed from the animals, and histones and proteins are extracted for the detection of acetylated lysine patterns.

HDAC1, sequence (Q13547 whole entry): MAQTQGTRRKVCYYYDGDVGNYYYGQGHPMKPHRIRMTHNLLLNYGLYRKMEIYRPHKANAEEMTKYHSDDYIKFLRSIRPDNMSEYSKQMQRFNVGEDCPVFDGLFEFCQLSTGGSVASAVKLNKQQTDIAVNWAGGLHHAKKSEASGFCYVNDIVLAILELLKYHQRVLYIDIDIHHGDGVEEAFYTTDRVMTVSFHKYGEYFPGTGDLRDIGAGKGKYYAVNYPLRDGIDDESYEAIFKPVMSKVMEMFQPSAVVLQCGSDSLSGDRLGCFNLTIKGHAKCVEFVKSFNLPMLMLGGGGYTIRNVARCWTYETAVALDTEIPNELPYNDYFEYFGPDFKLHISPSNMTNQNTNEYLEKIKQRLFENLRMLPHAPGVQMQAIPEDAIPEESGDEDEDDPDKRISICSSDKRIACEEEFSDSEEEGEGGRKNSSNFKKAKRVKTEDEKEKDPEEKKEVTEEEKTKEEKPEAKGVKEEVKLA

As to `O=C(NO)c1ccc(CN(CCO)C(=O)c2ccccc2)cc1` [Compound 11, N-hydroxy-4-((N-(2-hydroxyethyl)-2-benzamido)methyl)benzamide], in series [1], the IC50 turned out to be 270 nM. For the same compound, in series [2], the “accumulation of acetylated histones (H3)” value was “did not cause accumulation of actylated histones; also recorded: without induction of H3 acetylation” and the “accumulation of acetylated α-tubulin” value was “caused the accumulation of acetylated α-tubulin; also recorded: significant levels of tubulin acylation were present”. In addition, in series [3], the IC50 stood at 11 nM and the “Ratio: HDAC1/HDAC6” value was found to be 24.54.
Take `O=C(CCCCCCC(=O)Nc1ccccc1)NO` [SAHA, suberoylanilide hydroxamic acid, reference compound]: in series [4], the “accumulation of acetylated alpha-tubulin” value was “induced the accumulation of acetylated alpha-tubulin and histone H3”; the “accumulation of acetylated histone H3” value is “induced the accumulation of acetylated alpha-tubulin and histone H3”. The “Ratio: HDAC1/HDAC6” value in series [3] came to 3.09. Besides, the “death of LNCaP cells” value in series [5] was “kills LNCaP cells”.
With `O=C(CCCCCCC(=O)Nc1ccc([C@H]2O[C@@H](CSc3nc(-c4ccccc4)c(-c4ccccc4)o3)C[C@@H](c3ccc(CO)cc3)O2)cc1)NO` [Tubacin, reference compound], in series [1], the half-maximal inhibitory concentration (IC50) is 193 nM.
Consider `COc1cc([C@@H]2c3cc4c(cc3[C@@H](O[C@@H]3O[C@@H]5CO[C@@H](C)O[C@H]5[C@H](O)[C@H]3O)[C@H]3COC(=O)[C@H]23)OCO4)cc(OC)c1O` [etoposide, reference compound], for which, in series [6], the “growth of established CWR22 tumors, single agent” value is recorded as “no significant suppression of the growth” and the “weight loss, single agent” value was “no weight loss”. Besides, the “accumulation of histones in tumors, single agent” value in series [7] (mice injected with compound 8 alone or etoposide) is “Increased levels of accumulation of histones”. Besides, the “accumulation of acetylated alpha-tubulin in CWR22 tumors and spleen, single agent” value in series [7] (mice treated with compound 8 or etoposide) is recorded as “increased accumulation of acetylated alpha-tubulin”.

The values above are taken from patent US10626100B2, “Selective HDAC6 inhibitors” (The Trustees of Columbia University in the City of New York, priority 2013, dated 2020).
